Data: patent US11234982B2, “Methods for treating ocular surface pain” (NOVARTIS AG, priority 2019, dated 2022)

Key:
healthy volunteers [1] = experiment: First in human study Part 2: MAD, incidence of adverse events and MTD; format: in vivo; conditions: for AEs, Subjects with AEs: nS (%) (subjects with at least one AE) / Serious AEs: nE / Serious AEs: nS (%) / Study drug-related AEs: nE / Study drug-related AEs: nS (%) / Study-drug related AEs (last line of Table 2): nE / Study-drug related AEs (last line of Table 2): nS (%) / AEs leading to discontinuation of: nE / AEs leading to discontinuation of: nS (%) / AEs of Mild severity: nE / AEs of Mild severity: nS (%) / AEs of Moderate: nE / AEs of Moderate: nS (%) / AEs, Subjects with AEs: nE (AE events): MAD, N = 6
Description: Part 2 tested multiple ascending doses (MAD) of compound I, administering (i) 1 drop of 0.15%, 1.5%, 2.5%, 4 times daily (every 6 hours) for 7 days or (ii) 1 drop of 2.5%, 8 times daily (every 3 hours) for 7 days (supra-therapeutic dose) as eye drops.
(§1) Safety assessments: Safety assessments consisted of collecting all adverse events (AEs), serious adverse events (SAEs), including systemic and ocular adverse events, along with their severity and relationship to study drug. Systemic safety assessments included regular monitoring of hematology, blood chemistry and urinalysis performed at study center and regular assessments of physical examination, vital signs (systolic and diastolic blood pressure, pulse rate, and body temperature), ECG, pregnancy and assessments of fertility and hand immersion test at 49° C. during MAD part. Ocular safety assessments included early treatment diabetic retinopathy study (ETDRS) visual acuity, intraocular pressure, slit-lamp biomicroscopy, corneal staining and dilated fundus exam.
Inclusion Criteria: • Written informed consent was obtained before any assessment was performed. • Healthy male and female subjects aged 18 to 50 years (inclusive), and in good health as determined by past medical history, physical examination, vital signs, ECG, and laboratory tests at Screening. • At Screening, and Baseline, vital signs (systolic and diastolic blood pressure (BP) and pulse rate) were assessed in the sitting position after the subject had rested for at least 3 minutes and again after 3 minutes in the standing position. […] BMI=Body weight (kg)/[Height (m)]^2 • Subjects who were able to communicate well with the Investigator, to understand and comply with the requirements of the study. • For Part 3, subjects Baseline levels of eye sensitivity were to be in the range of 50 to 60 mm (inclusive) as measured by the Cochet-Bonnet esthesiometer.
History of any chronic eye disease other than refractive error, incipient cataract, strabismic amblyopia, or anisometropic amblyopia. Subjects with a history of acute eye disease (such as infection, corneal abrasion or allergy) within the past 6 months from Screening were eligible if the disease was not active. • Any currently active ocular condition that required use of topical eye drops. • Subjects using continuous positive airway pressure or other sleep apnea devices.

healthy volunteers [2] = experiment: Hand immersion test at 49° C. during MAD part; format: in vivo, human; conditions: water at 49° C.
Description: as §1
For the hand immersion test, all subjects in the treatment cohorts withdrew their hand from water at 49° C. at a time interval between 0 to ≤50 secs.

CC(C)c1nc2cc(O)ccc2c(=O)n1-c1ccc(C#N)cc1 [Compound I, 4-(7-hydroxy-2-isopropyl-4-oxo-4H-quinazolin-3-yl)-benzonitrile]
AEs, Subjects with AEs: nS (%) (subjects with at least one AE) (healthy volunteers [1]; 0.15% 4 times daily for 7 days): 3 (50.0) nS (%) | Serious AEs: nE (healthy volunteers [1]; 0.15% 4 times daily for 7 days): 0, 0 | Serious AEs: nS (%) (healthy volunteers [1]; 0.15% 4 times daily for 7 days): 0, 0 nS (%) | Study drug-related AEs: nE (healthy volunteers [1]; 0.15% 4 times daily for 7 days): 5 | Study drug-related AEs: nS (%) (healthy volunteers [1]; 0.15% 4 times daily for 7 days): 2 (33.3) nS (%) | Study-drug related AEs (last line of Table 2): nE (healthy volunteers [1]; 0.15% 4 times daily for 7 days): 0 | Study-drug related AEs (last line of Table 2): nS (%) (healthy volunteers [1]; 0.15% 4 times daily for 7 days): 0 (0.0) nS (%) | AEs leading to discontinuation of: nE (healthy volunteers [1]; 1.5% 4 times daily for 7 days): 0 | AEs leading to discontinuation of: nS (%) (healthy volunteers [1]; 1.5% 4 times daily for 7 days): 0 (0.0) nS (%) | AEs of Mild severity: nE (healthy volunteers [1]; 1.5% 4 times daily for 7 days): 11 | AEs of Mild severity: nS (%) (healthy volunteers [1]; 1.5% 4 times daily for 7 days): 5 (83.3) nS (%) | AEs of Moderate: nE (healthy volunteers [1]; 1.5% 4 times daily for 7 days): 1 | AEs of Moderate: nS (%) (healthy volunteers [1]; 1.5% 4 times daily for 7 days): 1 (16.7) nS (%) | AEs, Subjects with AEs: nE (AE events) (healthy volunteers [1]; 1.5% 4 times daily for 7 days): 12 | AEs, Subjects with AEs: nS (%) (subjects with at least one AE) (healthy volunteers [1]; 1.5% 4 times daily for 7 days): 5 (83.3) nS (%) | Serious AEs: nE (healthy volunteers [1]; 1.5% 4 times daily for 7 days): 0 | Serious AEs: nS (%) (healthy volunteers [1]; 1.5% 4 times daily for 7 days): 0 (0.0) nS (%) | Study drug-related AEs: nE (healthy volunteers [1]; 1.5% 4 times daily for 7 days): 9 | Study drug-related AEs: nS (%) (healthy volunteers [1]; 1.5% 4 times daily for 7 days): 3 (50.0) nS (%) | Study-drug related AEs (last line of Table 2): nE (healthy volunteers [1]; 1.5% 4 times daily for 7 days): 0 | Study-drug related AEs (last line of Table 2): nS (%) (healthy volunteers [1]; 1.5% 4 times daily for 7 days): 0 (0.0) nS (%) | AEs leading to discontinuation of: nE (healthy volunteers [1]; 2.5% 4 times daily for 7 days): 1, 1 | AEs leading to discontinuation of: nS (%) (healthy volunteers [1]; 2.5% 4 times daily for 7 days): 1, 1 nS (%) | AEs of Mild severity: nE (healthy volunteers [1]; 2.5% 4 times daily for 7 days): 3 | AEs of Mild severity: nS (%) (healthy volunteers [1]; 2.5% 4 times daily for 7 days): 2 (33.3) nS (%) | AEs of Moderate: nE (healthy volunteers [1]; 2.5% 4 times daily for 7 days): 1 | AEs of Moderate: nS (%) (healthy volunteers [1]; 2.5% 4 times daily for 7 days): 1 (16.7) nS (%) | AEs, Subjects with AEs: nE (AE events) (healthy volunteers [1]; 2.5% 4 times daily for 7 days): 4 | AEs, Subjects with AEs: nS (%) (subjects with at least one AE) (healthy volunteers [1]; 2.5% 4 times daily for 7 days): 2 (33.3) nS (%) | Serious AEs: nE (healthy volunteers [1]; 2.5% 4 times daily for 7 days): 0 | Serious AEs: nS (%) (healthy volunteers [1]; 2.5% 4 times daily for 7 days): 0 (0.0) nS (%) | Study drug-related AEs: nE (healthy volunteers [1]; 2.5% 4 times daily for 7 days): 4 | Study drug-related AEs: nS (%) (healthy volunteers [1]; 2.5% 4 times daily for 7 days): 2 (33.3) nS (%) | Study-drug related AEs (last line of Table 2): nE (healthy volunteers [1]; 2.5% 4 times daily for 7 days): 1 | Study-drug related AEs (last line of Table 2): nS (%) (healthy volunteers [1]; 2.5% 4 times daily for 7 days): 1 (16.7) nS (%) | AEs leading to discontinuation of: nE (healthy volunteers [1]; 2.5% 8 times daily for 7 days): 0 | AEs leading to discontinuation of: nS (%) (healthy volunteers [1]; 2.5% 8 times daily for 7 days): 0 (0.0) nS (%) | AEs of Mild severity: nE (healthy volunteers [1]; 2.5% 8 times daily for 7 days): 3 | AEs of Mild severity: nS (%) (healthy volunteers [1]; 2.5% 8 times daily for 7 days): 2 (33.3) nS (%) | AEs of Moderate: nE (healthy volunteers [1]; 2.5% 8 times daily for 7 days): 0 | AEs of Moderate: nS (%) (healthy volunteers [1]; 2.5% 8 times daily for 7 days): 0 (0.0) nS (%) | AEs, Subjects with AEs: nE (AE events) (healthy volunteers [1]; 2.5% 8 times daily for 7 days): 3 | AEs, Subjects with AEs: nS (%) (subjects with at least one AE) (healthy volunteers [1]; 2.5% 8 times daily for 7 days): 2 (33.3) nS (%) | Serious AEs: nE (healthy volunteers [1]; 2.5% 8 times daily for 7 days): 0 | Serious AEs: nS (%) (healthy volunteers [1]; 2.5% 8 times daily for 7 days): 0 (0.0) nS (%) | Study drug-related AEs: nE (healthy volunteers [1]; 2.5% 8 times daily for 7 days): 2 | Study drug-related AEs: nS (%) (healthy volunteers [1]; 2.5% 8 times daily for 7 days): 1 (16.7) nS (%) | Study-drug related AEs (last line of Table 2): nE (healthy volunteers [1]; 2.5% 8 times daily for 7 days): 0 | Study-drug related AEs (last line of Table 2): nS (%) (healthy volunteers [1]; 2.5% 8 times daily for 7 days): 0 (0.0) nS (%) | Severity of adverse events of suspected causality to compound I (healthy volunteers [1]; Parts 1, 2 and 3, exception in the 2.5% 4 times daily cohort): mild severity, except for moderate severity eye irritation | Most frequent ocular adverse events (healthy volunteers [1]; compound I treated, compared with placebo): corneal staining, hyperemia and mild anterior chamber inflammation, in levels similar to placebo | Maximum Tolerated Dose (MTD) (healthy volunteers [1]; maximum feasible concentration, 8 times daily for 7 days, eye drops): 2.5% | Change in hand immersion time, compound I vs vehicle (healthy volunteers [2]; MAD part): no meaningful change in immersion time | Temperature sensitivity of the subjects (healthy volunteers [2]; MAD part): does not alter temperature sensitivity | Longest hand immersion time of any subject (healthy volunteers [2]; all subjects in the treatment cohorts): ≤ 22 s
